From patent US4870160A, “Polypeptides with laminin activity” (Regents of the University of Minnesota, priority 1987, dated 1989)
Peptide text beside a SMILES is read from it.

How the values were obtained:
Rat C6 glioma cell line = assay: Cell adhesion assay for C6 cell line (Example 6C); assay type: cell-based; conditions: FIG. 12
Method: (§1) Adhesion was measured using 96 well microtiter plates adsorbed with three different amounts (0.1; 1.0; and 10.0 μg/per well) of peptides 9, 11-18, BSA and laminin. Cultures of cells which were 60-80% confluent were metabolically labeled for 24 hours with the addition of 3 mCi/ml of ^3 H-amino acid mixture. On the day of the assay, the cells were harvested by trypsinization, the trypsin was inhibited by the addition of serum, and the cells were washed free of this mixture and resuspended in DMEM buffered with HEPES at pH 7.2. The adhesion medium also contained 2 mg/ml BSA. The cells were adjusted to a concentration of 3-4×10^4 /ml and 100 μls of this cell suspension was added to the wells. The assay mixture was then incubated at 37° C for 120 minutes. At the end of the incubation, the wells were washed with warm PBS containing 10 mM Ca^++, and the adherent population was solubilized with 0.5N NaOH containing 1% sodium dodecyl sulfate. The solubilized cells were then quantitated using a liquid scintillation counter. Each determination was done in triplicate.
Rat C6 glioma cell line was purchased from the American Type Culture Collection (identification number CCL 107). Culturing techniques were as described in part A. Labelling and harvesting techniques were as described in Example 5. Cell adhesion assay was performed as described in Example 5.

[1] = test system: murine melanoma cells, K-1735-M4; assay: Cell adhesion assay for M4 cell line (Example 6A); assay type: cell-based; conditions: FIG. 10
Method: as §1
Highly metastatic murine melanoma cells, K-1735-M4 were originally provided by Dr. I. J. Fidler of Anderson Hospital, University of Texas Health Sciences Center, Houston, Tex. When the cells were received, a large number of early passage cells were propagated and frozen in liquid nitrogen. […]

[2] = test system: Bovine aortic endothelial cells; assay: Aortic endothelial cell adhesion assay (Example 5); assay type: cell-based; conditions: 0.1; 1.0; and 10.0 μg/per well adsorbed, 120 minutes at 37° C, FIG. 9
Method: Bovine aortic endothelial cells were isolated according to the following protocol. Aortas were obtained from a local slaughterhouse, washed in cold phosphate buffered saline (PBS) (136 mM NaCl, 2.6 mM KCl, 15.2 mM Na2HP04, pH 7.2) and processed within 2 hours. Crude collagenase (CLS III, 125-145 units per mg dry weight, Cooper Biomedical) was used at 2 mg/ml in Dulbecco's modified Eagle's medium (DMEM) (GIBCO). The vessel was clamped at the distal end, filled with the collagenase-PBS solution and digestion was carried out for 10 minutes. The lumenal contents were harvested, followed by the addition of fresh collagenase for two additional 10-minute periods. The enzyme-cell suspensions were added to an equal volume of DMEM containing 10% fetal bovine serum (FBS) to inhibit the enzyme and spun in a centrifuge at 400×g for 10 minutes. The resulting cell pellet was resuspended in DMEM containing 10% FBS, 100 units/ml of penicillin G, 100 μg/ml of streptomycin and 100 μg/ml of crude fibroblast growth factor. Cells are cultured in 75 cm^2 flasks in a humidified 5% CO2 atmosphere at 37° C. Cultures were fed twice a week with the same medium and cells were used in assays when approximately 75% confluent. Cells were identified as endothelial in nature by characteristic cobblestone morphology, contact inhibition of growth upon reaching confluency, and positive immunofluorescent staining for factor VIII:RAg (Miles Laboratories) [S. Schwartz, In Vitro, 14, 966 (1978)]. Only endothelial cells, megakaryocytes and platelets are known to contain the factor VIII:RAg. This method routinely gives a high yield of endothelial cells with little contamination (less than 5%) by smooth muscle cells, pericytes or fibroblasts as judged by phase contrast microscopy as well as by immunostaining.
as §1, with “At the end of the incubation, the wells were washed with warm PBS containing 10 mM Ca^++, and the adherent population was solubilized with 0.5N NaOH containing 1% sodium dodecyl sulfate.” left out, “Each determination was done in triplicate.” left out

[3] = test system: Murine fibrosarcoma cells (uv-2237-MM); assay: Cell adhesion assay for MM fibrosarcoma cell line (Example 6B); assay type: cell-based; conditions: FIG. 11
Method: as §1
Murine fibrosarcoma cells (uv-2237-MM) were originally provided by Dr. I. J. Fidler of Anderson Hospital, University of Texas Health Sciences Center, Houston, Tex. Culturing, labeling and harvesting techniques were as described in part A. Cell adhesion assay was performed as described in Example 5.

intact, native laminin = intact, native laminin (Mus musculus, UniProt P02469+P19137); assay: Inhibition of heparin binding to laminin by peptide fragments in solution (Example 3); conditions: peptides in solution 1 mg/ml to 1 μg/ml, laminin coated on plastic at 60 μg/ml, FIG. 6
Method: Peptides 9, 11-14 and 16 in solution (and not absorbed to plastic), were screened for the ability to inhibit the binding of heparin to intact, native laminin coated on plastic. This experimental approach avoids problems due to differential coating of peptides in heparin binding assays. Laminin at 60 μg/ml in PBS was coated on 96-well plates, using 50 μls per well and dried overnight at 28+ C. The wells were then treated for two hours with 2 mg/ml BSA in wash buffer (described above in Example 2). Peptides at various dilutions ranging from 1 mg/ml to 1 μg/ml in PBS and CHAPS (Cholamido-propyl-dimethyl-Axmmonio-PropaneSulfonate)(a detergent used to avoid non-specific sticking) were co-incubated with a standard amount of ^3 H-heparin (25,000 cpm per well 5 μg/ml final concentration) for two hours at 37° C. and the mixture was then transferred to the laminin coated plate (50 μl) and allowed to incubate for another two hours at 37° C. The wells were then washed and radioactivity was counted as described above.

[4] = test system: PC12 rat pheochromocytoma cells; assay: Cell adhesion assay for PC12 pheochromocytoma cell line (Example 6D); assay type: cell-based; conditions: FIG. 13
Method: as §1
PC12 rat pheochromocytoma cells were provided by Dr. P. Letourneau of the Department of Anatomy, University of Minnesota, Minneapolis, Minn. Culturing techniques were as described in part A. Labelling and harvesting techniques were as described in Example 5. Cell adhesion assay was performed as described in Example 5.

**Q.** Which results are given for `CSCC[C@H](NC(=O)CNC(=O)[C@H](CCCCN)NC(=O)[C@H](CCC(=O)O)NC(=O)[C@H](Cc1ccccc1)NC(=O)[C@H](CS)NC(=O)[C@@H](NC(=O)[C@@H]1CCCN1C(=O)[C@H](CCCNC(=N)N)NC(=O)[C@@H]1CCCN1C(=O)[C@H](CC(C)C)NC(=O)[C@@H](NC(=O)[C@@H](NC(=O)[C@H](Cc1ccc(O)cc1)NC(=O)[C@@H](N)CCCNC(=N)N)C(C)C)C(C)C)C(C)C)C(=O)N[C@@H](CC(N)=O)C(=O)N[C@@H](Cc1ccc(O)cc1)C(=O)N[C@H](C(=O)N[C@H](C(=O)N[C@@H](CCCNC(=N)N)C(=O)O)C(C)C)[C@@H](C)O` [Peptide F9] (H-RYVVLPRPVCFEKGMNYTVR-OH)?
**A.** cell adhesion (Rat C6 glioma cell line): potent promoters of cell adhesion; cell adhesion [1]: potent promoters of cell adhesion; endothelial cell adhesion [2]: potent promoters of endothelial cell adhesion; cell adhesion [3]: potent promoters of cell adhesion; inhibition of binding of heparin to laminin (intact, native laminin): interact most strongly with heparin; cell adhesion [4]: potent promoters of cell adhesion

**Q.** How did the cell adhesion (Rat C6 glioma cell line) turn out when `CC[C@H](C)[C@H](NC(=O)[C@H](CCCCN)NC(=O)[C@H](CC(C)C)NC(=O)[C@H](C)NC(=O)[C@H](CCCCN)NC(=O)[C@H](C)NC(=O)[C@H](CCCCN)NC(=O)[C@H](CCC(=O)O)NC(=O)[C@H](CC(C)C)NC(=O)[C@H](Cc1ccccc1)NC(=O)[C@H](CCCCN)NC(=O)[C@H](Cc1c[nH]cn1)NC(=O)[C@@H](NC(=O)[C@H](CCCNC(=N)N)NC(=O)[C@H](CC(N)=O)NC(=O)[C@@H](NC(=O)[C@H](CC(C)C)NC(=O)[C@@H](N)CCC(=O)O)[C@@H](C)O)[C@@H](C)O)C(=O)O` [Peptide F13, ELTNRTHKFLEKAKALKI] (H-ELTNRTHKFLEKAKALKI-OH) was run?
**A.** potent promoters of cell adhesion

**Q.** What about the cell adhesion [1] of the same compound?
**A.** potent promoters of cell adhesion

**Q.** What about the endothelial cell adhesion [2] of the same compound?
**A.** potent promoters of endothelial cell adhesion

**Q.** And the cell adhesion [3]?
**A.** potent promoters of cell adhesion

**Q.** And the “inhibition of binding of heparin to laminin” value (intact, native laminin)?
**A.** interact most strongly with heparin

**Q.** And the cell adhesion [4]?
**A.** potent promoters of cell adhesion
